{"source": "ChEMBL document CHEMBL5212743", "about": "“Selectivity Literature for EUbOPEN Chemogenomics Library wave 3” (2023)", "key": {"[1]": {"target": "Dual specificity protein kinase CLK4 (Homo sapiens) (UniProt Q9HAZ1)", "sequence (Q9HAZ1 whole entry, looked up)": "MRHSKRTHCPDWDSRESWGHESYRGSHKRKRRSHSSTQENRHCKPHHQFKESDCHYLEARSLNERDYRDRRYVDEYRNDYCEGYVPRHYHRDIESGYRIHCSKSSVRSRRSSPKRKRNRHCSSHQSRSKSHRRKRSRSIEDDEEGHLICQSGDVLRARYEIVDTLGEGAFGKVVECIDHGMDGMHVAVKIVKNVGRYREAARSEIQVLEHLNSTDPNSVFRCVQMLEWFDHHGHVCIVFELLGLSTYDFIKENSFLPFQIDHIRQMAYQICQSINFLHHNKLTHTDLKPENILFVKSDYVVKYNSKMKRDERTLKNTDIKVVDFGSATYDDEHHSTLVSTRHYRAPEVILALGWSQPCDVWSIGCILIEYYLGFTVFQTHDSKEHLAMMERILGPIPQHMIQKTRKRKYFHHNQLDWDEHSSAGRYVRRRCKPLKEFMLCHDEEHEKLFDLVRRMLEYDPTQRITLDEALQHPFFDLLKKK", "assay": "Selectivity interaction (KinomeScan (DiscoverX)) EUB0000702a CLK4", "conditions": "at 1 µM"}, "[2]": {"target": "T1, Mitogen-activated protein kinase 12 (Homo sapiens) (UniProt P53778)", "T1 sequence (whole entry)": "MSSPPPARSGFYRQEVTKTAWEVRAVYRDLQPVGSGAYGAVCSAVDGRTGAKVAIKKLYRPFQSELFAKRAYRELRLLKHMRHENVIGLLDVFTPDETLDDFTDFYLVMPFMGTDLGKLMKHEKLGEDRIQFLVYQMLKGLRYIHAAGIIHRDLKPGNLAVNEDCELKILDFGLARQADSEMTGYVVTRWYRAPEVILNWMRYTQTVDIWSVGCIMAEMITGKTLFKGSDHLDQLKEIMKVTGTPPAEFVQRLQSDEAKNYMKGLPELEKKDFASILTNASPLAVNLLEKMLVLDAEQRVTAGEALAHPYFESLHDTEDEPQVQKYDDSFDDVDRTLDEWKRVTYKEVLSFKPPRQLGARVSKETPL", "conditions": "at 10 µM"}, "[3]": {"target": "T2, Receptor-interacting serine/threonine-protein kinase 4 (Homo sapiens) (UniProt P57078)", "T2 sequence (whole entry)": "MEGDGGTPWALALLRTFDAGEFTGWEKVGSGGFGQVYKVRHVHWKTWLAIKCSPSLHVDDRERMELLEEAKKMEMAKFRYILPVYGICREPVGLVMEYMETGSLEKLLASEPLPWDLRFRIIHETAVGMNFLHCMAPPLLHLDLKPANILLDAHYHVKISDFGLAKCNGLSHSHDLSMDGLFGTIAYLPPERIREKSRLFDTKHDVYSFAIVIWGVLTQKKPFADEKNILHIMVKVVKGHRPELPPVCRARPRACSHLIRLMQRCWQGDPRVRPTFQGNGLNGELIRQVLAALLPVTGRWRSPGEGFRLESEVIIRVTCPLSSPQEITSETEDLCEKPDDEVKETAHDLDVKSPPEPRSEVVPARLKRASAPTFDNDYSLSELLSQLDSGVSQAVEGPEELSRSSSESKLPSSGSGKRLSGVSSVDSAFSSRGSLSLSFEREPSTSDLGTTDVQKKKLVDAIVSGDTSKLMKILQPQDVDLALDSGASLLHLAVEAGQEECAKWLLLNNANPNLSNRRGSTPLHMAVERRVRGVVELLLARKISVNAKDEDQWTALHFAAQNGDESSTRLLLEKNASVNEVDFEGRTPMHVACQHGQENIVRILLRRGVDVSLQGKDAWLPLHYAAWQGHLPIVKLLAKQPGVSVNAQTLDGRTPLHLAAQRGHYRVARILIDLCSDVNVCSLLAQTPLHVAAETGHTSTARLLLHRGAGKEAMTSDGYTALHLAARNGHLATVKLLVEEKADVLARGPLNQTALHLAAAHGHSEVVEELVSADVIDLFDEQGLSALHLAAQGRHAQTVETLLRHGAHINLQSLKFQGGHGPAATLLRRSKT", "assay": "Selectivity interaction (KinomeScan (DiscoverX)) EUB0000178b RIPK4", "conditions": "at 1 µM"}}, "data": [{"smiles": "CN(c1ccnc(CNc2nc(Nc3ccc4c(c3)CC(=O)N4)ncc2C(F)(F)F)n1)S(C)(=O)=O", "note": "[PF-00911705]", "values": [{"measurement": "% of control", "setting": "[1]", "result": 1.4, "unit": "%"}]}, {"smiles": "CC[C@@H]1C(=O)N(C)c2cnc(Nc3ccc(C(=O)NC4CCN(C)CC4)cc3OC)nc2N1C1CCCC1", "values": [{"measurement": "% of control", "setting": "[2]", "result": 112, "unit": "%"}]}, {"smiles": "CN1C(=O)c2sccc2N(C)c2nc(Nc3ccc(S(N)(=O)=O)cc3)ncc21", "values": [{"measurement": "% of control", "setting": "[3]", "result": 9.5, "unit": "%"}]}]}
